Measured values published in PubChem BioAssay (NCI).
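Values below derive from 48-hour exposures of cells grown in 96-well plates, with endpoints linearly interpolated between the two concentrations bracketing the appropriate inhibition level. At the GI50, growth is halved. TGI is the concentration that stops growth completely.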

Legend:
Test in all cases: DTP human tumour cell line panel, 48 h
SF-295 CNS = system: SF-295 CNS
SF-268 CNS = system: SF-268 CNS
HOP-92 NSCLC = system: HOP-92 NSCLC
RPMI-8226 leukemia = system: RPMI-8226 leukemia
NCI-H23 lung = system: NCI-H23 lung
SNB-75 CNS = system: SNB-75 CNS
HL-60(TB) leukemia = system: HL-60(TB) leukemia
SK-MEL-5 melanoma = system: SK-MEL-5 melanoma
HOP-62 NSCLC = system: HOP-62 NSCLC
SR leukemia = system: SR leukemia

## COC(C)C(O)(C(=O)OCC1=CCN2CCC(O)C12)C(C)(C)O (stereo not given)
SF-295 CNS
  TGI: > 100 µM
SF-268 CNS
  TGI: > 100 µM
HOP-92 NSCLC
  TGI: > 100 µM
RPMI-8226 leukemia
  TGI: > 100 µM
NCI-H23 lung
  TGI: > 100 µM
SNB-75 CNS
  TGI: > 100 µM
HL-60(TB) leukemia
  TGI: > 100 µM
SK-MEL-5 melanoma
  TGI: > 100 µM

## C[CH2][Sn]([CH2]C)([O]C(=O)c1ccc(F)cc1)[O]C(=O)c1ccc(F)cc1
SF-295 CNS
  GI50: 44.3 µM
  TGI: > 65.7 µM
HOP-62 NSCLC
  GI50: 62.6 µM
  TGI: > 100 µM
SF-268 CNS
  GI50: 17.9 µM
  TGI: 33.5 µM
HOP-92 NSCLC
  GI50: 12.7 µM
  TGI: 26 µM
RPMI-8226 leukemia
  GI50: 20.1 µM
  TGI: 53.9 µM
NCI-H23 lung
  GI50: 17.3 µM
  TGI: 32.8 µM
SNB-75 CNS
  GI50: 17.9 µM
  TGI: 33.5 µM
HL-60(TB) leukemia
  GI50: 60.5 µM
  TGI: > 100 µM
SK-MEL-5 melanoma
  GI50: 39.6 µM
  TGI: > 100 µM

## O=C1N=C(Nc2nc(-c3csc(NC4=NC(=O)/C(=C\c5ccccc5)S4)n3)cs2)S/C1=C/c1ccccc1
SF-295 CNS
  GI50: 16.6 µM
  TGI: > 50 µM
HOP-62 NSCLC
  GI50: 7.97 µM
  TGI: 46.3 µM
SF-268 CNS
  GI50: 16.6 µM
  TGI: > 50 µM
HOP-92 NSCLC
  GI50: 4.37 µM
  TGI: 20.5 µM
RPMI-8226 leukemia
  GI50: 0.629 µM
  TGI: 3.35 µM
NCI-H23 lung
  GI50: 17.6 µM
  TGI: > 50 µM
HL-60(TB) leukemia
  GI50: 14.3 µM
  TGI: 36.8 µM
SK-MEL-5 melanoma
  GI50: 5.87 µM
  TGI: 33.4 µM

## CCC[CH2][Sn]1([CH2]CCC)[S]CC[N]1S(=O)(=O)c1ccc(C)cc1
SF-295 CNS
  GI50: 1.97 µM
  TGI: 3.42 µM
HOP-62 NSCLC
  GI50: 2.22 µM
  TGI: 3.83 µM
SF-268 CNS
  GI50: 1.19 µM
  TGI: 2.54 µM
HOP-92 NSCLC
  GI50: 1.19 µM
  TGI: 2.46 µM
RPMI-8226 leukemia
  GI50: 0.386 µM
  TGI: 2.01 µM
NCI-H23 lung
  GI50: 0.638 µM
  TGI: 1.94 µM
SNB-75 CNS
  GI50: 1.13 µM
  TGI: 2.38 µM
HL-60(TB) leukemia
  GI50: 0.581 µM
  TGI: 2.73 µM
SK-MEL-5 melanoma
  GI50: 1.68 µM
  TGI: 3.2 µM

## O/N=C/c1ccc(O)c(O)c1
SR leukemia
  TGI: > 100 µM
SF-295 CNS
  TGI: > 100 µM
HOP-62 NSCLC
  TGI: > 100 µM
SF-268 CNS
  TGI: > 100 µM
HOP-92 NSCLC
  TGI: > 100 µM
NCI-H23 lung
  TGI: > 100 µM
SNB-75 CNS
  TGI: > 100 µM
HL-60(TB) leukemia
  TGI: 58.8 µM
SK-MEL-5 melanoma
  TGI: > 100 µM

## O=C1NC(c2ccccc2)C2(C(=O)O)CN(C3CC3)c3cc(N4CCNCC4)c(F)cc3C2N1 (stereo not given)
SF-295 CNS
  GI50: > 100 µM
  TGI: > 100 µM
HOP-62 NSCLC
  GI50: > 100 µM
  TGI: > 100 µM
SF-268 CNS
  GI50: > 100 µM
  TGI: > 100 µM
HOP-92 NSCLC
  GI50: > 100 µM
  TGI: > 100 µM
RPMI-8226 leukemia
  GI50: > 100 µM
  TGI: > 100 µM
NCI-H23 lung
  GI50: > 100 µM
  TGI: > 100 µM
SNB-75 CNS
  GI50: > 100 µM
  TGI: > 100 µM
HL-60(TB) leukemia
  GI50: > 100 µM
  TGI: > 100 µM
SK-MEL-5 melanoma
  GI50: > 100 µM
  TGI: > 100 µM

## C1=CCCC=CCC1.C[PH+](C)C.C[PH+](C)C.C[PH+](C)C.[Cl-].[Ir]
SF-295 CNS
  GI50: > 100 µM
  TGI: > 100 µM
HOP-62 NSCLC
  GI50: > 100 µM
  TGI: > 100 µM
HOP-92 NSCLC
  GI50: 28.6 µM
  TGI: 98.8 µM
NCI-H23 lung
  GI50: > 100 µM
  TGI: > 100 µM
SNB-75 CNS
  GI50: 34.3 µM
  TGI: > 100 µM
HL-60(TB) leukemia
  GI50: 28.7 µM
  TGI: 75.3 µM
SK-MEL-5 melanoma
  GI50: 70 µM
  TGI: > 100 µM

## COC(=O)N/N=C(\C)CC(=O)Nc1ccc(Cl)cc1
SF-295 CNS
  TGI: > 100 µM
HOP-62 NSCLC
  TGI: > 100 µM
SF-268 CNS
  TGI: > 100 µM
HOP-92 NSCLC
  TGI: > 100 µM
RPMI-8226 leukemia
  TGI: > 100 µM
NCI-H23 lung
  TGI: > 100 µM
SNB-75 CNS
  TGI: > 100 µM
HL-60(TB) leukemia
  TGI: > 100 µM
SK-MEL-5 melanoma
  TGI: > 100 µM
